The source made the active and inactive calls. The calls are words filed in the database; no cut-off is given here. Bounds are passed on as bounds.

The subject of data set [1] is Plasmodium falciparum. Put plainly: Antiplasmodial activity against chloroquine-sensitive erythrocytic stage Plasmodium falciparum 3D7 assessed as inhibition of parasite growth incubated for 3 days by HRP2-ELISA. The note with it: 3D7, 72 h. It counts as functional, organism-based. Background: An ELISA detects its analyte on a solid surface through an enzyme-linked reagent.

Data set [2] has as its system Plasmodium falciparum. Put plainly: Antiplasmodial activity against chloroquine-resistant erythrocytic stage Plasmodium falciparum Dd2 assessed as inhibition of parasite growth incubated for 3 days by HRP2-ELISA. It counts as functional, organism-based. The conditions noted are these: Dd2, 72 h.
Data set [3] relates to Plasmodium berghei. Kind of data set: Antiplasmodial activity against hepatic stage Plasmodium berghei infected in Huh-7 cells assessed as cell viability incubated for 1 hrs by bioluminescence assay. It counts as functional, organism-based.
Data set [4] relates to HepG2. Put plainly: Cytotoxicity against human HepG2 cells assessed as cell growth inhibition incubated for 1 day by neutral red assay. The conditions noted are these: HepG2, 24 h. It counts as functional, cell-based.
The nature of data set [5]: Selectivity index, ratio of IC50 for human HepG2 cells to IC50 for […] erythrocytic stage Plasmodium falciparum 3D7. It counts as toxicity. The note with it: read-out: Selectivity Index.

As for `Cc1nccc2c1[nH]c1ccc(OCCNC(=O)/C=C/c3ccc(F)cc3)cc12`, the half-inhibitory concentration (IC50) (usually the midpoint of a concentration-inhibition curve) is 0.95 µM in data set [1], 1.67 µM in data set [2] and above 250 µM in data set [4]. Also, the result in data set [3] was Active. Besides, in data set [5], the selectivity ratio is above 263.
Take `COc1ccc(/C=C/C(=O)OCc2cn(Cc3cc4c([nH]c5ccccc54)c(C)n3)nn2)cc1`: the IC50 in data set [1] and in data set [2] was above 27.8 µM throughout. Moreover, the outcome in data set [3] was Active.
`O=C(/C=C/c1ccccc1)OCc1cn(Cc2nccc3c2[nH]c2ccccc23)nn1`: the figures for the half-inhibitory concentration (IC50) in data set [1] and in data set [2] were above 27.8 µM and above 20.2 µM, respectively.
On to `Cc1nccc2c1[nH]c1ccc(OCCNC(=O)/C=C/c3cccc(C(F)(F)F)c3)cc12`, for which the values for the IC50 in data set [1], in data set [2] and in data set [4] were 0.12 µM, 0.32 µM and 6.14 µM, respectively. Moreover, the result in data set [3] was Active. In data set [5], the selectivity ratio came out at 51.2.
With `O=C(/C=C/c1ccc(Cl)cc1)NCc1nccc2c1[nH]c1ccccc12`, the IC50 in data set [1] and in data set [2] was above 27.8 µM each time.
With `Cc1nc(Cn2cc(COC(=O)/C=C/c3ccc(Cl)cc3)nn2)cc2c1[nH]c1ccccc12`, the IC50 in data set [1] is 21.4 µM; in data set [2], above 27.8 µM; in data set [4], 70.5 µM. Also, the outcome in data set [3] was Active. The selectivity ratio in data set [5] is 3.29.
`O=C(/C=C/c1cccc(C(F)(F)F)c1)NCc1nccc2c1[nH]c1ccccc12`: the IC50 in data set [1] and in data set [2] was above 27.8 µM throughout.
Regarding `COc1ccc(/C=C/C(=O)OCc2cn(Cc3nccc4c3[nH]c3ccccc34)nn2)cc1`, the results for the IC50 in data set [1] and in data set [2] were above 55.6 µM and 39.2 µM, respectively.
On to `COc1ccc(/C=C/Cn2cc(Cn3c4ccccc4c4cc(CO)nc(C)c43)nn2)cc1`, for which the IC50 in data set [1] is 18.2 µM; in data set [2], above 16.9 µM. In addition, the result in data set [3] was Active.
On to `Cc1nc(CNC(=O)/C=C/c2ccc(F)cc2)cc2c1[nH]c1ccccc12`, for which the half-inhibitory concentration (IC50) in data set [1] came to 4.13 µM; in data set [2], 13.3 µM; in data set [4] it was 12.5 µM. Also, the result in data set [3] was Active. For the same compound, the selectivity ratio in data set [5] stood at 2.99.
As for `COc1ccc2c3ccnc(C)c3n(CCNC(=O)/C=C/c3ccc(C(F)(F)F)cc3)c2c1`, the concentration for half-maximal inhibition (IC50) was 0.04 µM in data set [1]; 0.17 µM in data set [2]; 8.4 µM in data set [3] (Huh-7, 1 h); 5.84 µM in data set [4]. Moreover, in data set [5], the selectivity ratio was found to be 146.
Take `Cc1nccc2c1[nH]c1ccc(OCc3cn(C/C=C/c4cccc(Br)c4)nn3)cc12`: the half-inhibitory concentration (IC50) in data set [1] was determined as 0.26 µM; in data set [2] it was 0.73 µM; in data set [4] it was 6.13 µM. Further, the result in data set [3] was Active. For the same compound, the selectivity ratio in data set [5] stood at 23.6.
With `Cc1nc(CNC(=O)/C=C/c2cccc(C(F)(F)F)c2)cc2c1[nH]c1ccccc12`, the half-inhibitory concentration (IC50) in data set [1] was 2.01 µM; in data set [2], 7.4 µM; in data set [4], 9.37 µM. For the same compound, the outcome in data set [3] was Active. Also, the selectivity ratio in data set [5] amounted to 4.66.
On to `Cc1nc(CNC(=O)/C=C/c2ccc(C(F)(F)F)cc2)cc2c1[nH]c1ccccc12`, for which the results for the concentration for half-maximal inhibition (IC50) in data set [1], in data set [2] and in data set [4] were 2.3 µM, 5.97 µM and 33.3 µM, respectively. Moreover, the outcome in data set [3] was Active. In addition, the selectivity ratio in data set [5] is 14.5.
Turning to `Cc1nc(Cn2cc(COC(=O)/C=C/c3ccccc3)nn2)cc2c1[nH]c1ccccc12`, the results for the half-maximal inhibitory concentration (IC50) in data set [1] and in data set [2] were above 20 µM and above 27.8 µM, respectively. For the same compound, the result in data set [3] was Active.
`O=C(/C=C/c1cccc(Br)c1)OCc1cn(Cc2nccc3c2[nH]c2ccccc23)nn1`: the concentration for half-maximal inhibition (IC50) in data set [1] is above 13.2 µM; in data set [2], above 19.1 µM.
`O=C(/C=C/c1ccccc1)NCc1nccc2c1[nH]c1ccccc12`: the IC50 is above 28 µM in data set [1] and above 55.6 µM in data set [2].
Consider `O=C(/C=C/c1ccc(Cl)cc1)OCc1cn(Cc2nccc3c2[nH]c2ccccc23)nn1`, for which the IC50 in data set [1] and in data set [2] was above 55.6 µM in each case.
Take `COc1ccc(/C=C/C(=O)NCc2cc3c([nH]c4ccccc43)c(C)n2)cc1`: the IC50 in data set [1] amounted to 6.5 µM; in data set [2] it was 10.7 µM; in data set [4], 10.4 µM. Further, the outcome in data set [3] was Active. The selectivity ratio in data set [5] is 1.6.
Take `Cc1nc(CNC(=O)/C=C/c2cccc(Br)c2)cc2c1[nH]c1ccccc12`: the half-inhibitory concentration (IC50) in data set [1] was found to be 3.23 µM; in data set [2], 1.48 µM; in data set [4], 9.64 µM. For the same compound, the result in data set [3] was Active. In addition, the selectivity ratio in data set [5] was 2.98.
As to `COc1ccc2c(c1)[nH]c1c(C)nccc12` [HARMINE], the IC50 in data set [2] was above 27.7 µM; in data set [4], above 250 µM. Moreover, the selectivity ratio in data set [5] was 30.
`Cc1nc(Cn2cc(COC(=O)/C=C/c3cccc(F)c3)nn2)cc2c1[nH]c1ccccc12`: the IC50 in data set [1] and in data set [2] was above 27.8 µM each time. In data set [3], the result was Active.
With `Cc1nc(CO)cc2c3ccccc3n(Cc3cn(C/C=C/c4ccccc4)nn3)c12`, the results for the IC50 in data set [1] and in data set [2] were above 27.8 µM and above 19.8 µM, respectively. Also, the result in data set [3] was Active.
Regarding `Cc1nc(CO)cc2c3ccccc3n(Cc3cn(C/C=C/c4cccc(Br)c4)nn3)c12`, the half-maximal inhibitory concentration (IC50) was 6.28 µM in data set [1], 18.4 µM in data set [2] and above 125 µM in data set [4]. The result in data set [3] was Active. In data set [5], the selectivity ratio is above 19.9.
Consider `COc1ccc(/C=C/C(=O)NCc2nccc3c2[nH]c2ccccc23)cc1`, for which the IC50 in data set [1] and in data set [2] was above 27.8 µM each time.
As to `O=C(/C=C/c1ccc(F)cc1)NCc1nccc2c1[nH]c1ccccc12`, the IC50 in data set [1] and in data set [2] was above 13.9 µM throughout.
With `COc1ccc(/C=C/Cn2cc(COc3ccc4[nH]c5c(C)nccc5c4c3)nn2)cc1`, the IC50 in data set [1] turned out to be 0.6 µM; in data set [2], 1.81 µM; in data set [4], 88 µM. Further, the result in data set [3] was Active. Besides, in data set [5], the selectivity ratio was 147.
Take `Cc1nccc2c1[nH]c1ccc(OCc3cn(C/C=C/c4cccc(F)c4)nn3)cc12`: the IC50 worked out at 0.55 µM in data set [1], 2.28 µM in data set [2] and 10.5 µM in data set [4]. The result in data set [3] was Active. The selectivity ratio in data set [5] was found to be 19.1.
As to `Cc1nc(Cn2cc(COC(=O)/C=C/c3cccc(Br)c3)nn2)cc2c1[nH]c1ccccc12`, the results for the concentration for half-maximal inhibition (IC50) in data set [1], in data set [2] and in data set [4] were 16.4 µM, 11.1 µM and 110 µM, respectively. Further, the result in data set [3] was Active. For the same compound, the selectivity ratio in data set [5] turned out to be 6.71.
For `Cc1nc(CNC(=O)/C=C/c2ccc(Cl)cc2)cc2c1[nH]c1ccccc12` the same measures were 2.92 µM, 8.38 µM, 11.3 µM, “Active” and 3.88.
On to `O=C(/C=C/c1cccc(F)c1)OCc1cn(Cc2nccc3c2[nH]c2ccccc23)nn1`, for which the IC50 was above 17.3 µM in data set [1] and above 20.1 µM in data set [2].
For `Cc1nccc2c1[nH]c1ccc(OCc3cn(C/C=C/c4ccccc4)nn3)cc12`, the IC50 in data set [1] was found to be 0.61 µM; in data set [2], 2.12 µM; in data set [4] it was 10.1 µM. For the same compound, in data set [3], the outcome was Active. Besides, the selectivity ratio in data set [5] stood at 16.6.
For the compound `Cc1nccc2c1[nH]c1ccc(OCCNC(=O)/C=C/c3ccc(C(F)(F)F)cc3)cc12`, the half-inhibitory concentration (IC50) is 0.12 µM in data set [1], 0.35 µM in data set [2] and 3.59 µM in data set [4]. Also, the outcome in data set [3] was Active. Also, the selectivity ratio in data set [5] was 29.9.
With `O=C(/C=C/c1cccc(Br)c1)NCc1nccc2c1[nH]c1ccccc12`, the IC50 in data set [1] and in data set [2] was above 27.8 µM throughout.
Turning to `COc1ccc(/C=C/C(=O)NCCOc2ccc3[nH]c4c(C)nccc4c3c2)cc1`, the IC50 in data set [1] is 1.17 µM; in data set [2], 2.86 µM; in data set [4] it was above 250 µM. Besides, the outcome in data set [3] was Active. Also, in data set [5], the selectivity ratio was above 214.
For the compound `O=C(/C=C/c1cccc(F)c1)NCc1nccc2c1[nH]c1ccccc12`, the concentration for half-maximal inhibition (IC50) in data set [1] and in data set [2] was above 27.8 µM throughout.
For the compound `O=C(/C=C/c1ccc(C(F)(F)F)cc1)NCc1nccc2c1[nH]c1ccccc12`, the half-maximal inhibitory concentration (IC50) in data set [1] and in data set [2] was above 55.6 µM throughout.
Take `Cc1nccc2c1[nH]c1ccc(OCCNC(=O)/C=C/c3ccccc3)cc12`: the IC50 in data set [1] was determined as 1.55 µM; in data set [2], 2.47 µM; in data set [4] it was 12 µM. Further, the outcome in data set [3] was Active. The selectivity ratio in data set [5] was found to be 7.75.
As to `Cc1nccc2c1[nH]c1ccc(OCc3cn(C/C=C/c4ccc(Cl)cc4)nn3)cc12`, the IC50 came out at 0.57 µM in data set [1], 0.95 µM in data set [2] and 3.95 µM in data set [4]. In addition, in data set [3], the result was Active. Moreover, the selectivity ratio in data set [5] came to 6.93.
Regarding `Cc1nc(CNC(=O)/C=C/c2ccccc2)cc2c1[nH]c1ccccc12`, the IC50 in data set [1] worked out at 5.78 µM; in data set [2], 10.2 µM; in data set [4], 7.05 µM. Moreover, in data set [3], the result was Active. The selectivity ratio in data set [5] amounted to 1.29.
Take `Cc1nc(CNC(=O)/C=C/c2cccc(F)c2)cc2c1[nH]c1ccccc12`: the IC50 in data set [1] stood at 5.74 µM; in data set [2], 12.7 µM; in data set [4] it was 15.8 µM. In addition, the result in data set [3] was Active. Besides, in data set [5], the selectivity ratio is 2.76.
As for `Cc1nccc2c1[nH]c1ccc(OCCNC(=O)/C=C/c3ccc(Cl)cc3)cc12`, the IC50 in data set [1] was 0.36 µM; in data set [2] it was 0.92 µM; in data set [4], above 250 µM. In addition, the result in data set [3] was Active. The selectivity ratio in data set [5] is above 694.
As to `Cc1nc(CO)cc2c3ccccc3n(Cc3cn(C/C=C/c4ccc(Cl)cc4)nn3)c12`, the IC50 is above 19.9 µM in data set [1] and above 23.6 µM in data set [2]. Also, the result in data set [3] was Active.

Source of the values: ChEMBL document CHEMBL4828716, “Further investigation of harmicines as novel antiplasmodial agents: Synthesis, structure-activity relationship and insight into the mechanism of action” (Eur J Med Chem, 2021).
